Experimental data taken from patent publication US5652237A, “2-substituted-4H-3, 1-benzoxazin-4-ones and benzthiazin-4-ones as inhibitors of complement C1r protease for the treatment of inflammatory processes” (Warner-Lambert Company, priority 1995, dated 1997).
Like-named read-outs stand apart in the source and are kept apart here.

Tests used:
[1] = target: T1, human C1 r (Homo sapiens, UniProt P00736); assay: Assay of C1r Enzyme Activity (Assay 1), thioester substrate z-Gly-Arg-S-Bzl with DTNB; format: biochemical
T1 construct: purchased Enzyme Research Labs (South Bend, Ind.)
T1 sequence (P00736 464-705 limits assumed): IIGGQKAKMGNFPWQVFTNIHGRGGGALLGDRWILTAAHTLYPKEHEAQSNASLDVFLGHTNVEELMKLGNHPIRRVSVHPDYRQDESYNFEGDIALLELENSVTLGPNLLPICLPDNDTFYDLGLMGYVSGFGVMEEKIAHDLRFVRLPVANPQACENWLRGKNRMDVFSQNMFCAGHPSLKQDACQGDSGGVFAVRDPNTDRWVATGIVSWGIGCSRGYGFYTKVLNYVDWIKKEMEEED
T1 sequence (P00736 18-463 partner limits assumed): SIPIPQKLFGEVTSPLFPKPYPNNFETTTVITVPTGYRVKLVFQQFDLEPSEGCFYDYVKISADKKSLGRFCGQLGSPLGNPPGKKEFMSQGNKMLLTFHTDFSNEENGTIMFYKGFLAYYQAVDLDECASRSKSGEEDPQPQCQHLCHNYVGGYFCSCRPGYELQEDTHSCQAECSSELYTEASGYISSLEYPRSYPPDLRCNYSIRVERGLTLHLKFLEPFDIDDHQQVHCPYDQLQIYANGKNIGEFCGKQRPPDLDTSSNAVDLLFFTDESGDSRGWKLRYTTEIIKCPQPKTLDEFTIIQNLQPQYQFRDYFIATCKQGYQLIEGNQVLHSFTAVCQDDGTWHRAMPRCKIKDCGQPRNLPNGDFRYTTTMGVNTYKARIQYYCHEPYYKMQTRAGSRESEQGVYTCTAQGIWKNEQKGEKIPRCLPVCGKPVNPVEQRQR
Method: Assay of C1 r Enzyme Activity Purified human C1 r was obtained commercially from Enzyme Research Labs (South Bend, Ind.). The enzyme is stored frozen at -70° C. at a stock concentration of about 1 mg/mL of protein until the enzyme is needed. […] The thioester substrate, z-Gly-Arg-S-Bzl, for C1 r assays (McRae, et al., 1981) is obtained commercially from Enzyme System Products (Livermore, Calif.). All other reagents were obtained from Sigma Chemical Co. (St. Louis, Mo.). The procedure for assaying the inhibition of C1 r enzyme activity is as follows. A 5 mM stock solution of z-Gly-Arg-S-Bzl is made in dimethylsulfoxide (DMSO) and stored at room temperature until needed. The stock substrate solution is diluted 3 parts stock substrate solution to 7 parts distilled water to make a 1.5 mM working substrate solution. The working substrate solution is made just before it is needed. A fresh solution of 20 μg/mL of C1 r enzyme is made in 10 mM Tris buffer, pH 7.4. The enzyme solution can be stored on ice for up to an hour. […] Compounds at concentrations ranging from 1 mM to 0.010 mM are dissolved in DMSO and a 10 μL aliquot of each concentration is deposited in a well of a 96-well microtiter plate. Fifty microliters of the working substrate solution and 50 μL of DTNB solution are then dispensed in the wells of the microtiter plate, followed by the immediate addition of 50 μL of the C1 r enzyme solution to start the assay. The assay produces a yellow color that is read in the kinetic mode using a Molecular Devices Thermomax microplate reader set to a wavelength of 405 nm. The assay background is followed by monitoring wells that contain substrate, buffer, and DTNB solutions but no enzyme. All assays are performed in triplicate at each inhibitor concentration tested. Values for each inhibitor concentration are reported as optical density (OD)/minute.

[2] = target: T2, human complement protease C1 r (Homo sapiens, UniProt P00736); assay: Assay 2, inhibition of human complement protease C1r with substrate ZVGR-pNA; format: biochemical; conditions: Table 2; substrate ZVGR-pNA 1.2 mM, pH 7.4, 25° C., 10 minutes preincubation; read-out: Inhibition of Clr ZVGRpNA - Assay 2
T2 sequence (P00736 464-705 limits assumed): T1 sequence (P00736 464-705 limits assumed)
T2 sequence (P00736 18-463 partner limits assumed): T1 sequence (P00736 18-463 partner limits assumed)
Method: The assay was performed in a 96-well format. Fifty microliters of water were added to each well followed by 2.5 μL of an inhibitory agent, usually in dimethyl foramide (DMF) (or water). A C1 r solution (100 μL) containing 0.1 μg of activated human C1 r and 100 mM Tris-HCl (pH 7.4 at 25° C.) was then added. The mixture was incubated for 10 minutes at 25° C. The reaction was then started by the addition of 100 μL of a 3 mM (Cbz-Val-Gly-Arg-p-nitroanilide) ZVGR-pNA solution. The final reaction mixture (250 μL) contained 40 mM of Tris-HCl, 1.2 mM of ZVGR-pNA, 0.1 μg C1 R and certain concentration of an inhibitor. The production of p-nitroaniline was monitored at 405 nm every 15 minutes up to 90 minutes (at 25° C.). The velocity was linear for at least 60 minutes.

[3] = Table 1 and text, pH 7.4-7.5, read-out: Inhibition of Clr Assay 1 (IC50)
[4] = Table 2, pH 7.4-7.5, read-out: Inhibition of Clr Assay 1 IC50

Row | SMILES | IC50 [1, 3] [nM] | IC50 [1, 4] [nM] | IC50 [2] [nM]
1 | COc1ccc2nc(N(C)C(=O)c3ccccc3I)oc(=O)c2c1 [Example 43, 2-Iodo-N-(6-methoxy-4-oxo-4H-benzo[d][1,3]oxazin-2-yl)-N-methyl-benzamide] | 48000 |  | 
2 | COc1ccc2c(=O)oc(N(C)C(=O)c3ccccc3I)nc2c1 [Example 44, 2-Iodo-N-(7-methoxy-4-oxo-4H-benzo[d][1,3]oxazin-2-yl)-N-methyl-benzamide] | > 66000 |  | 
3 | Cc1ccc2c(=O)oc(Nc3ccccc3Cl)nc2c1 [Example 45, 2-(2-Chloro-phenylamino)-7-methyl-benzo[d][1,3]oxazin-4-one] | 1400 |  | 
4 | O=c1oc(Nc2ccccc2I)nc2cc(F)c(F)cc12 [Example 46, 6,7-Difluoro-2-(2-iodo-phenylamino)-benzo[d][1,3]oxazin-4-one] | 7000 |  | 
5 | O=c1oc(Nc2ccccc2Cl)nc2cc(Cl)c(Cl)cc12 [Example 48, 6,7-Dichloro-2-(2-chloro-phenylamino)-benzo[d][1,3]oxazin-4-one] | 2000 |  | 
6 | O=c1oc(Nc2c(Cl)cccc2Cl)nc2cc(Cl)ccc12 [Example 50, 7-Chloro-2-(2,6-dichloro-phenylamino)-benzo[d][1,3]oxazin-4-one] | 400 |  | 
7 | Cc1ccccc1Nc1nc2ccccc2c(=O)o1 [Example 51, 2-o-Tolylamino-benzo[d][1,3]oxazin-4-one] | 31000 |  | 
8 | O=c1oc(Nc2ccccc2Cl)nc2cc([N+](=O)[O-])ccc12 [Example 52, 2-(2-Chloro-phenylamino)-7-nitro-benzo[d][1,3]oxazin-4-one] | 1400 |  | 
9 | O=c1oc(Nc2c(Cl)cccc2Cl)nc2ccccc12 [Example 53, 2-(2,6-Dichloro-phenylamino)-benzo[d][1,3]oxazin-4-one] | 1500 |  | 
10 | CN(C(=O)c1ccccc1I)c1nc2cccc(Cl)c2c(=O)o1 [Example 54, N-(5-Chloro-4-oxo-4H-benzo[d][1,3]oxazin-2-yl)-2-iodo-N-methyl-benzamide] | 36000 |  | 
11 | Cc1ccc2c(=O)oc(N(C)C(=O)c3ccccc3I)nc2c1 [Example 55, 2-Iodo-N-methyl-N-(7-methyl-4-oxo-4H-benzo[d][1,3]oxazin-2-yl)-benzamide] | 2800 |  | 
12 | CN(C(=O)c1ccccc1I)c1nc2cc(Cl)c(Cl)cc2c(=O)o1 [Example 56, N-(6,7-Dichloro-4-oxo-4H-benzo[d][1,3]oxazin-2-yl)-2-iodo-N-methyl-benzamide] | 8000 |  | 
13 | CN(C(=O)c1cccc2ccccc12)c1nc2ccccc2c(=O)o1 [Example 57, Naphthalene-1-carboxylic acid methyl-(4-oxo-4H-benzo[d][1,3]oxazin-2-yl)-amide] | 23400 |  | 
14 | CCCCc1ccc(C(=O)N(C)c2nc3ccccc3c(=O)o2)cc1 [Example 58, 4-Butyl-N-methyl-N-(4-oxo-4H-benzo[d][1,3]oxazin-2-yl)-benzamide] | 16000 |  | 
15 | COc1ccc(C(=O)N(C)c2nc3ccccc3c(=O)o2)cc1 [Example 59, 4-Methoxy-N-methyl-N-(4-oxo-4H-benzo[d][1,3]oxazin-2-yl)-benzamide] | 19000 |  | 
16 | CN(C(=O)c1ccco1)c1nc2ccccc2c(=O)o1 [Example 61, Furan-2-carboxylic acid methyl-(4-oxo-4H-benzo[d][1,3]oxazin-2-yl)-amide] | 10100 |  | 
17 | CN(C(=O)c1cccnc1)c1nc2ccccc2c(=O)o1 [Example 62, N-Methyl-N-(4-oxo-4H-benzo[d][1,3]oxazin-2-yl)nicotinamide] | 40000 |  | 
18 | CCCCCCC(=O)N(C)c1nc2ccccc2c(=O)o1 [Example 64, Heptanoic acid methyl-(4-oxo-4H-benzo[d][1,3]oxazin-2-yl)-amide] |  | 680 | 47.8
19 | CN(C(=O)C1CCCCC1)c1nc2ccccc2c(=O)o1 [Example 65, Cyclohexanecarboxylic acid methyl-(4-oxo-4H-benzo[d][1,3]oxazin-2-yl)-amide] |  | 1200 | 7.8
20 | CCCCCCC(=O)N(CC)c1nc2ccccc2c(=O)o1 [Example 66, Heptanoic acid ethyl-(4-oxo-4H-benzo[d][1,3]oxazin-2-yl)-amide] |  | 6320 | 29
21 | CCCCCCCCCCC(=O)N(C)c1nc2ccccc2c(=O)o1 [Example 67, Undecanoic acid methyl-(4-oxo-4H-benzo[d][1,3]oxazin-2-yl)-amide] |  | > 62500 | 500
22 | CN(C(=O)CCc1ccccc1)c1nc2ccccc2c(=O)o1 [Example 68, N-Methyl-N-(4-oxo-4H-benzo[d][1,3]oxazin-2-yl)-3-phenyl-propionamide] |  | 1300 | 103
23 | CC(=O)N(C)c1nc2ccccc2c(=O)o1 [Example 69, N-Methyl-N-(4-oxo-4H-benzo[d][1,3]oxazin-2-yl)acetamide] |  | 30000 | 399
24 | N=C(N)c1ccc2cc(OC(=O)c3ccc(N=C(N)N)cc3)ccc2c1 [FUT-175, reference compound] | 12000 |  | 
